# Data published in patent US10568874B2, “Indane-amines as PD-L1 antagonists” (CHEMOCENTRYX, INC., priority 2018, dated 2020).
# Target: human PD-L1 (Homo sapiens (Human), UniProt Q9NZQ7)
# Assay: Enzyme-Linked Immunosorbent Assay (ELISA), PD-1/PD-L1 binding
# Conditions: plate-coated human PD-L1, biotinylated human PD-1
# Method: Plates were coated with 1 μg/mL of human PD-L1 (obtained from R&D) in PBS overnight at 4° C. The wells were then blocked with 2% BSA in PBS (W/V) with 0.05% TWEEN-20 for 1 hour at 37° C. The plates were washed 3 times with PBS/0.05% TWEEN-20 and the samples were diluted to 1:5 in dilution medium in the ELISA plates. Human PD-1 and biotin 0.3 μg/mL (ACRO Biosystems) were added and incubated for 1 hour at 37° C. then washed 3 times with PBS/0.05% TWEEN-20. A second block was added with 2% SA in PBS (W/V)/0.05% TWEEN-20 for 10 min at 37° C. and was washed 3 times with PBS/0.05% TWEEN-20. Streptavidin-HRP was added for 1 hour at 37° C. then washed 3 times with PBS/0.05% TWEEN-20. TMB substrate was added and reacted for 20 min at 37° C. A stop solution (2 N aqueous H2SO4) was added. The absorbance was read at 450 nm using a micro-plate spectrophotometer.
# Sequence of human PD-L1 (Q9NZQ7 19-239): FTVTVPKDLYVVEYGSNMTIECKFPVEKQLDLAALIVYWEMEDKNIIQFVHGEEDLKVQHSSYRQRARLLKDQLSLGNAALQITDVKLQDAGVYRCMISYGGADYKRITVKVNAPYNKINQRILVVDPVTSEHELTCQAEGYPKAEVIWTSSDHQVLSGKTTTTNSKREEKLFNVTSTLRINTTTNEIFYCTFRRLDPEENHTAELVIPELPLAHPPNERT
row,SMILES,IC50 [nM]
1,CCOc1cc(NC2CCc3c(-c4cccc(OCCCN5CCC(F)CC5)c4C)cccc32)c(Cl)cc1CNC[C@@H]1CCC(=O)N1 (some centres unmarked),5 to 500
2,CCOc1cc(NC2CCc3c(-c4cccc(OCCCN5CCC(F)CC5)c4C)cccc32)c(Cl)cc1CN[C@H]1CCC(=O)NC1 (some centres unmarked),500 to 20000
3,CCOc1cc(NC2CCc3c(-c4cccc(OCCCN5CCC(C)(F)CC5)c4C)cccc32)c(Cl)cc1CNC[C@@H]1CCC(=O)N1 (some centres unmarked),5 to 500
4,CCOc1cc(NC2CCc3c(-c4cccc(OCCCN5CCC(C)(F)CC5)c4C)cccc32)c(Cl)cc1CN[C@H]1CCC(=O)NC1 (some centres unmarked),500 to 20000
5,CCOc1cc(NC2CCc3c(-c4cccc(OCCCN5CCC(C)(F)CC5)c4Cl)cccc32)c(Cl)cc1CN1CCC(O)CC1 (centres unmarked),500 to 20000
6,CCOc1cc(NC2CCc3c(-c4cccc(OCCCN5CCC(C)(F)CC5)c4Cl)cccc32)c(Cl)cc1CN[C@H]1CCC(=O)NC1 (some centres unmarked),500 to 20000
7,CCOc1cc(NC2CCc3c(-c4cccc(OCCCN5CCC(F)CC5)c4C)cccc32)c(Cl)cc1CN[C@@H](CO)C(=O)O (some centres unmarked),5 to 500
8,CCOc1cc(NC2CCc3c(-c4ccccc4F)cccc32)c(Cl)cc1CN[C@@H](CO)C(=O)O (stereo partly drawn) [(2S)-2-[[5-chloro-2-ethoxy-4-[[4-(2-fluorophenyl)indan-1-yl]amino]phenyl]methylamino]-3-hydroxy-propanoic Acid],5 to 500
